Reference: PubChem BioAssay AID2060599 (Molecular Pharmacology Branch, DTP, NCI, 2025)
pIC50: −log10 of the molar value.

Test system: 817829-284-R-J1-PDC complex spheroids, viability
Assay: Anticancer human tumor 817829-284-R-J1-PDC patient-derived colon adenocarcinoma cell line growth inhibition [CLK]
Details: for pIC50: curve of first compound; for viability, T/C: stronger effect = lower value; active = viability on the fitted dose curve at most 10% of control; inactive = the rest
Outline: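 Multi-cell-type spheroids combined patient-derived tumor cells with HUVEC endothelial cells and human mesenchymal stem cells. Paired agents were dosed in half-log steps down from about clinical Cmax, or from 10 microM where Cmax was unknown.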

[1] = second compound 0.0316 µM, first compound 0.0316 µM
[2] = second compound 0.0316 µM, first compound 0.1 µM
[3] = second compound 0.0316 µM, first compound 0.316 µM
[4] = second compound 0.0316 µM, first compound 1 µM
[5] = second compound 0.0316 µM, first compound 3.16 µM
[6] = second compound 0.0316 µM, first compound 10 µM
[7] = second compound 0.1 µM, first compound 0.0316 µM
[8] = second compound 0.1 µM, first compound 0.1 µM
[9] = second compound 0.1 µM, first compound 0.316 µM
[10] = second compound 0.1 µM, first compound 1 µM
[11] = second compound 0.1 µM, first compound 3.16 µM
[12] = second compound 0.1 µM, first compound 10 µM
[13] = second compound 0.316 µM, first compound 0.0316 µM
[14] = second compound 0.316 µM, first compound 0.1 µM
[15] = second compound 0.316 µM, first compound 0.316 µM
[16] = second compound 0.316 µM, first compound 1 µM
[17] = second compound 0.316 µM, first compound 3.16 µM
[18] = second compound 0.316 µM, first compound 10 µM
[19] = second compound 1 µM, first compound 0.0316 µM
[20] = second compound 1 µM, first compound 0.1 µM
[21] = second compound 1 µM, first compound 0.316 µM
[22] = second compound 1 µM, first compound 1 µM
[23] = second compound 1 µM, first compound 3.16 µM
[24] = second compound 1 µM, first compound 10 µM
[25] = second compound 3.16 µM, first compound 0.0316 µM
[26] = second compound 3.16 µM, first compound 0.1 µM
[27] = second compound 3.16 µM, first compound 0.316 µM
[28] = second compound 3.16 µM, first compound 1 µM
[29] = second compound 3.16 µM, first compound 3.16 µM
[30] = second compound 3.16 µM, first compound 10 µM
[31] = second compound 10 µM, first compound 0.0316 µM
[32] = second compound 10 µM, first compound 0.1 µM
[33] = second compound 10 µM, first compound 0.316 µM
[34] = second compound 10 µM, first compound 1 µM
[35] = second compound 10 µM, first compound 3.16 µM
[36] = second compound 10 µM, first compound 10 µM
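Also: spheroids exposed to the agents for seven days before readout.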

CC(=O)O[C@H]1C(=O)[C@@]2(C)[C@H]([C@H](OC(=O)c3ccccc3)[C@]3(O)C[C@H](OC(=O)[C@H](O)[C@@H](NC(=O)c4ccccc4)c4ccccc4)C(C)=C1C3(C)C)[C@]1(OC(C)=O)CO[C@@H]1C[C@@H]2O + CN1CCN(c2cc(C(=O)Nc3cc4cc(-c5cnn(C)c5)ccc4cn3)ccn2)CC1
> 7.50: pIC50 (second compound 0.0316 µM) | pIC50 (second compound 0.1 µM) | pIC50 (second compound 0.316 µM) | pIC50 (second compound 1 µM) | pIC50 (second compound 3.16 µM) | pIC50 (second compound 10 µM)
active: viability, T/C [1] 5.38% | viability, T/C [2] 5.12% | viability, T/C [3] 4.55% | viability, T/C [4] 4.77% | viability, T/C [5] 5.22% | viability, T/C [6] 5.27% | viability, T/C [7] 5.23% | viability, T/C [8] 4.54% | viability, T/C [9] 4.59% | viability, T/C [10] 4.02% | viability, T/C [11] 4.74% | viability, T/C [12] 5.63% | viability, T/C [13] 2.41% | viability, T/C [14] 2.26% | viability, T/C [15] 2.43% | viability, T/C [16] 2.04% | viability, T/C [17] 2.2% | viability, T/C [18] 2.45% | viability, T/C [19] 0.09% | viability, T/C [20] 0.1% | viability, T/C [21] 0.09% | viability, T/C [22] 0.07% | viability, T/C [23] 0.09% | viability, T/C [24] 0.11% | viability, T/C [25] 0.11% | viability, T/C [26] 0.14% | viability, T/C [27] 0.13% | viability, T/C [28] 0.16% | viability, T/C [29] 0.1% | viability, T/C [30] 0.14% | viability, T/C [31] 0.07% | viability, T/C [32] 0.1% | viability, T/C [33] 0.11% | viability, T/C [34] 0.09% | viability, T/C [35] 0.11% | viability, T/C [36] 0.12%

CCc1c2c(nc3ccc(O)cc13)-c1cc3c(c(=O)n1C2)COC(=O)[C@]3(O)CC + CN1CCN(c2cc(C(=O)Nc3cc4cc(-c5cnn(C)c5)ccc4cn3)ccn2)CC1
active: viability, T/C [2] 6.83% | viability, T/C [3] 4.71% | viability, T/C [4] 2.93% | viability, T/C [7] 7.3% | viability, T/C [8] 4.95% | viability, T/C [9] 3.31% | viability, T/C [10] 1.84% | viability, T/C (second compound 0.316 µM, first compound 0.00316 µM) 2.41% | viability, T/C (second compound 0.316 µM, first compound 0.01 µM) 2.17% | viability, T/C [13] 1.78% | viability, T/C [14] 0.79% | viability, T/C [15] 0.28% | viability, T/C [16] 0.34% | viability, T/C (second compound 1 µM, first compound 0.00316 µM) 0.09% | viability, T/C (second compound 1 µM, first compound 0.01 µM) 0.12% | viability, T/C [19] 0.2% | viability, T/C [20] 0.27% | viability, T/C [21] 0.27% | viability, T/C [22] 0.41% | viability, T/C (second compound 3.16 µM, first compound 0.00316 µM) 0.14% | viability, T/C (second compound 3.16 µM, first compound 0.01 µM) 0.18% | viability, T/C [25] 0.19% | viability, T/C [26] 0.21% | viability, T/C [27] 0.31% | viability, T/C [28] 0.67% | viability, T/C (second compound 10 µM, first compound 0.00316 µM) 0.05% | viability, T/C (second compound 10 µM, first compound 0.01 µM) 0.1% | viability, T/C [31] 0.12% | viability, T/C [32] 0.13% | viability, T/C [33] 0.15% | viability, T/C [34] 0.1%
inactive: viability, T/C (second compound 0.0316 µM, first compound 0.00316 µM) 18.9% | viability, T/C (second compound 0.0316 µM, first compound 0.01 µM) 14.8% | viability, T/C [1] 12.5% | viability, T/C (second compound 0.1 µM, first compound 0.00316 µM) 14.1% | viability, T/C (second compound 0.1 µM, first compound 0.01 µM) 11.4%
> 8.50: pIC50 (second compound 0.0316 µM) | pIC50 (second compound 0.1 µM) | pIC50 (second compound 0.316 µM) | pIC50 (second compound 1 µM) | pIC50 (second compound 3.16 µM) | pIC50 (second compound 10 µM)

COc1ccc([C@@H](O)c2cc(-c3ncnc4cc(N5CCOCC5)ccc34)c(F)cc2Cl)nn1 + CN1CCN(c2cc(C(=O)Nc3cc4cc(-c5cnn(C)c5)ccc4cn3)ccn2)CC1
> 7.50: pIC50 (second compound 0.1 µM) | pIC50 (second compound 0.316 µM) | pIC50 (second compound 1 µM) | pIC50 (second compound 3.16 µM) | pIC50 (second compound 10 µM)
inactive: viability, T/C [1] 79.8% | viability, T/C [2] 69% | viability, T/C [3] 59.6% | viability, T/C [4] 29.3% | viability, T/C [5] 19.4% | viability, T/C [6] 10.3% | viability, T/C [7] 15.4% | viability, T/C [8] 17.1% | viability, T/C [9] 14.9% | viability, T/C [10] 13% | viability, T/C [11] 11.8%
6.37: pIC50 (second compound 0.0316 µM)
active: viability, T/C [12] 6.42% | viability, T/C [13] 1.6% | viability, T/C [14] 2.02% | viability, T/C [15] 2.05% | viability, T/C [16] 1.33% | viability, T/C [17] 1% | viability, T/C [18] 0.54% | viability, T/C [19] 0.08% | viability, T/C [20] 0.13% | viability, T/C [21] 0.1% | viability, T/C [22] 0.06% | viability, T/C [23] 0.1% | viability, T/C [24] 0.07% | viability, T/C [25] 0.14% | viability, T/C [26] 0.14% | viability, T/C [27] 0.19% | viability, T/C [28] 0.11% | viability, T/C [29] 0.13% | viability, T/C [30] 0.16% | viability, T/C [31] 0.09% | viability, T/C [32] 0.06% | viability, T/C [33] 0.13% | viability, T/C [34] 0.08% | viability, T/C [35] 0.15% | viability, T/C [36] 0.12%

COc1cccc2c1C(=O)c1c(O)c3c(c(O)c1C2=O)CC(O)(C(=O)CO)CC3OC1CC(N)C(O)C(C)O1 (stereo not given) + CN1CCN(c2cc(C(=O)Nc3cc4cc(-c5cnn(C)c5)ccc4cn3)ccn2)CC1
active: viability, T/C [3] 3.99% | viability, T/C [4] 0.16% | viability, T/C [5] 0.37% | viability, T/C [6] 1.02% | viability, T/C [9] 2.32% | viability, T/C [10] 0.22% | viability, T/C [11] 0.51% | viability, T/C [12] 0.96% | viability, T/C [13] 1.68% | viability, T/C [14] 0.69% | viability, T/C [15] 0.24% | viability, T/C [16] 0.33% | viability, T/C [17] 0.63% | viability, T/C [18] 0.97% | viability, T/C [19] 0.12% | viability, T/C [20] 0.29% | viability, T/C [21] 0.26% | viability, T/C [22] 0.59% | viability, T/C [23] 0.53% | viability, T/C [24] 0.72% | viability, T/C [25] 0.14% | viability, T/C [26] 0.16% | viability, T/C [27] 0.24% | viability, T/C [28] 0.38% | viability, T/C [29] 0.38% | viability, T/C [30] 0.06% | viability, T/C [31] 0.04% | viability, T/C [32] 0.07% | viability, T/C [33] 0.11% | viability, T/C [34] 0.06% | viability, T/C [35] 0.1% | viability, T/C [36] 0.08%
inactive: viability, T/C [1] 19.4% | viability, T/C [2] 15.6% | viability, T/C [7] 18.2% | viability, T/C [8] 13.4%
> 7.50: pIC50 (second compound 0.0316 µM) | pIC50 (second compound 0.1 µM) | pIC50 (second compound 0.316 µM) | pIC50 (second compound 1 µM) | pIC50 (second compound 3.16 µM) | pIC50 (second compound 10 µM)

CCCS(=O)(=O)Nc1ccc(F)c(C(=O)c2c[nH]c3ncc(-c4ccc(Cl)cc4)cc23)c1F + CNC(=O)c1ccc(Nc2nc(OC3CCCC3)c3c(-c4ccc5nc(C)oc5c4)c[nH]c3n2)c(OC)c1
active: viability, T/C [24] 6.76% | viability, T/C [35] 9.32% | viability, T/C [36] 5.05%
> 7.50: pIC50 (second compound 0.0316 µM) | pIC50 (second compound 0.1 µM) | pIC50 (second compound 0.316 µM) | pIC50 (second compound 1 µM) | pIC50 (second compound 3.16 µM) | pIC50 (second compound 10 µM)
inactive: viability, T/C [1] 31.8% | viability, T/C [2] 23.5% | viability, T/C [3] 33.4% | viability, T/C [4] 27% | viability, T/C [5] 33% | viability, T/C [6] 10.1% | viability, T/C [7] 19.1% | viability, T/C [8] 16.2% | viability, T/C [9] 16.2% | viability, T/C [10] 20.5% | viability, T/C [11] 21.1% | viability, T/C [12] 16.3% | viability, T/C [13] 38% | viability, T/C [14] 22.6% | viability, T/C [15] 18% | viability, T/C [16] 15.2% | viability, T/C [17] 18.3% | viability, T/C [18] 15.7% | viability, T/C [19] 17.8% | viability, T/C [20] 15% | viability, T/C [21] 18.6% | viability, T/C [22] 12.8% | viability, T/C [23] 11.6% | viability, T/C [25] 16.4% | viability, T/C [26] 15.9% | viability, T/C [27] 21.2% | viability, T/C [28] 22.2% | viability, T/C [29] 9.76% | viability, T/C [30] 12.3% | viability, T/C [31] 21.7% | viability, T/C [32] 17.4% | viability, T/C [33] 12% | viability, T/C [34] 17.2%
